One experiment concerns pcb-00197 (human undifferentiated pleomorphic sarcoma culture). As to the method:
(§1)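 60-agent targeted drug screens (Drug Screen V3 on epithelioid sarcoma cultures PCB490-3/4/5, PCB495, EPS cell lines ESX, VA-ES-BJ, FU-EPS-1 and SkMc myoblasts; PPTI screen v2.1 on human UPS PCB197 and canine UPS S1-12). 384-well plates, 72 h, CellTiter-Glo viability; IC50 by Hill curve fit. 10000 nM = no IC50 achieved (top reported value).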

A further experiment relates to s1-12 (canine undifferentiated pleomorphic sarcoma culture). As to the method: as §1
In another experiment the test system is PCB490-3 (human epithelioid sarcoma primary culture). As to the method:
(§2)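 Roche open-access kinase inhibitor screen (223 compounds) on human epithelioid sarcoma primary cultures from three spatially distinct regions of tumor PCB490. 384-well plates, 72 h, CellTiter-Glo viability; IC50 by Hill curve fit. 100000 nM = no IC50 reached. Compound ids carry a plate-well prefix, which is stripped.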

The subject of a further experiment is PCB490-4 (human epithelioid sarcoma primary culture). As to the method:
as §2

Another experiment concerns PCB490-5 (human epithelioid sarcoma primary culture). How it is done:
as §2

Molecules are shown by their SMILES.

The record followed here is the supplement of paper PMC6580486.

On to `Cn1cc(C2=C(c3cn(C4CCN(Cc5ccccn5)CC4)c4ccccc34)C(=O)NC2=O)c2ccccc21` [enzastaurin], for which the IC50 cell viability with pcb-00197 and in the experiment on s1-12 was over 10 µM each time.

For the compound `CC(/C=C/C(=O)NO)=C\[C@@H](C)C(=O)c1ccc(N(C)C)cc1` [trichostatin], the IC50 cell viability in the experiment with pcb-00197 is over 10 µM; with s1-12, 0.87 µM.

Regarding `CC(C)(C)c1cnc(CSc2cnc(NC(=O)C3CCNCC3)s2)o1` [SNS-032], the values for the IC50 cell viability with pcb-00197 and in the experiment on s1-12 were 0.78 µM and 0.11 µM, respectively.

Turning to `CC(C)C[C@H](NC(=O)[C@H](Cc1ccccc1)NC(=O)c1cnccn1)B(O)O` [bortezomib], the figures for the IC50 cell viability in the experiment on pcb-00197 and in the experiment on s1-12 were 4.83 µM and 4.69 µM, respectively.

With `CNC(=O)c1cc(Oc2ccc(NC(=O)Nc3ccc(Cl)c(C(F)(F)F)c3)cc2)ccn1` [sorafenib], the IC50 cell viability is over 10 µM in the experiment with pcb-00197 and 6.43 µM in the experiment on s1-12.

Regarding `CC(C)C[C@H](NC(=O)[C@H](CCc1ccccc1)NC(=O)CN1CCOCC1)C(=O)N[C@@H](Cc1ccccc1)C(=O)N[C@@H](CC(C)C)C(=O)[C@@]1(C)CO1` [carfilzomib], the values for the IC50 cell viability in the experiment with pcb-00197 and in the experiment on s1-12 were 0.47 µM and 0.99 µM, respectively.

Take `COc1cc(Nc2ncc(F)c(Nc3ccc4c(n3)N(COP(=O)(O)O)C(=O)C(C)(C)O4)n2)cc(OC)c1OC` [Fostamatinib]: the results for the IC50 cell viability with pcb-00197 and in the experiment on s1-12 were 4.33 µM and 0.73 µM, respectively.

As to `COc1cc2nccc(Oc3ccc(NC(=O)C4(C(=O)Nc5ccc(F)cc5)CC4)cc3)c2cc1OC` [Cabozantinib], the IC50 cell viability in the experiment with pcb-00197 and in the experiment with s1-12 was over 10 µM each time.

As for `CCN(CC)CCCC(C)Nc1c2ccc(Cl)cc2nc2ccc(OC)cc12` (configuration not stated) [quinacrine], the IC50 cell viability was found to be 1.57 µM in the experiment with pcb-00197 and 0.99 µM with s1-12.

In the case of `CN(C)c1ccccc1CN1CCCN(Cc2ccccc2N(C)C)C1c1ccncc1` [GANT61], the IC50 cell viability in the experiment with pcb-00197 and in the experiment with s1-12 was over 10 µM throughout.

For the compound `Cc1ccc(C(=O)Nc2ccc(CN3CCN(C)CC3)c(C(F)(F)F)c2)cc1C#Cc1cnc2cccnn12` [ponatinib], the IC50 cell viability came out at 4.43 µM in the experiment on pcb-00197 and 0.16 µM with s1-12.

Consider `NC1(c2ccc(-c3nc4ccn5c(=O)[nH]nc5c4cc3-c3ccccc3)cc2)CCC1` [MK-2206], for which the IC50 cell viability with pcb-00197 is over 10 µM; in the experiment with s1-12, 1.09 µM.

As for `Nc1ncn([C@H]2C[C@H](O)[C@@H](CO)O2)c(=O)n1` [decitabine], the IC50 cell viability with pcb-00197 was over 10 µM; in the experiment with s1-12 it was 0.33 µM.

Turning to `COc1cc(Nc2ncc3c(n2)-c2ccc(Cl)cc2C(c2c(F)cccc2OC)=NC3)ccc1C(=O)O` [MLN8237], the results for the IC50 cell viability with pcb-00197 and in the experiment on s1-12 were 2.74 µM and 0.98 µM, respectively.

On to `Cn1cc(C2=C(c3cn(CCN)c4ccccc34)C(=O)NC2=O)c2ccccc21`, for which the IC50 cell viability in the experiment on PCB490-3, in the experiment on PCB490-4 and in the experiment with PCB490-5 was over 100 µM in each case.

Turning to `COc1ccccc1CCN=C1NC(=O)/C(=C/c2ccc3ncccc3c2)S1`, the IC50 cell viability in the experiment with PCB490-3, in the experiment with PCB490-4 and in the experiment on PCB490-5 was over 100 µM each time.

For `Cn1c(=O)c(Oc2ccc(F)cc2F)cc2cnc(NC3CCS(=O)(=O)CC3)nc21`, the IC50 cell viability with PCB490-3, in the experiment with PCB490-4 and with PCB490-5 was over 100 µM each time.

For `COc1ccc(O)c(C(=O)c2ccc(C(=O)N[C@@H]3CCCNC[C@H]3NC(=O)c3ccncc3)cc2)c1F`, the IC50 cell viability in the experiment with PCB490-3, with PCB490-4 and in the experiment with PCB490-5 was over 100 µM throughout.

Take `C[C@@H](c1ccccc1)[C@@H](C(=O)Nc1ccc(I)cc1F)N1C(=O)N[C@H](c2ccc(OC[C@H](O)CO)cc2)C1=O`: the IC50 cell viability with PCB490-3, in the experiment on PCB490-4 and with PCB490-5 was over 100 µM in each case.

Consider `COc1cc[nH]c1/C=C1\C(=O)Nc2ccc(F)c(C#CC3(O)CCNCC3)c21`, for which the IC50 cell viability was over 100 µM in the experiment with PCB490-3, 1 µM with PCB490-4 and 0.67 µM with PCB490-5.

As for `CON=C1NC(=O)/C(=C/c2ccc3ncccc3c2)S1`, the IC50 cell viability in the experiment on PCB490-3 is 6.8 µM; in the experiment with PCB490-4, over 100 µM; in the experiment on PCB490-5 it was over 100 µM.

Take `CCCCCNC(=O)[C@@H]1CCCN2C(=O)CC[C@H](NC(=O)[C@H](Cc3ccc(OP(=O)(O)O)cc3)NC(C)=O)C(=O)N12`: the IC50 cell viability in the experiment with PCB490-3, with PCB490-4 and with PCB490-5 was over 100 µM throughout.

In the case of `Nc1c(C(=O)c2cccc(CCC3(O)CCCC3)c2)cnn1-c1ccc(F)cc1`, the IC50 cell viability with PCB490-3, with PCB490-4 and in the experiment on PCB490-5 was over 100 µM throughout.

Regarding `O=c1c(Oc2ccc(F)cc2F)cc2cnc(NC3CCOCC3)nc2n1C1CCS(=O)(=O)CC1`, the IC50 cell viability in the experiment with PCB490-3, in the experiment on PCB490-4 and with PCB490-5 was over 100 µM throughout.

Consider `Fc1ccc(-c2c(-c3ccncc3)[nH]c3nccnc23)cc1`, for which the IC50 cell viability in the experiment on PCB490-3, with PCB490-4 and in the experiment on PCB490-5 was over 100 µM each time.

For `Cn1cc(C2=C(c3c4n(c5ccccc35)CCC(CN)CC4)C(=O)NC2=O)c2ccccc21` (configuration not stated), the IC50 cell viability in the experiment on PCB490-3, in the experiment on PCB490-4 and in the experiment with PCB490-5 was over 100 µM throughout.

With `O=C1NC(=NCc2ccccc2Cl)S/C1=C\c1ccc2ncccc2c1`, the IC50 cell viability in the experiment with PCB490-3, with PCB490-4 and in the experiment with PCB490-5 was over 100 µM each time.

With `Cn1cc(C2=C(c3cn(CCO)c4ccccc34)C(=O)NC2=O)c2ccccc21`, the IC50 cell viability with PCB490-3, with PCB490-4 and in the experiment with PCB490-5 was over 100 µM throughout.

For `C[C@@H](Cn1ncnn1)Nc1ncc2cc(Oc3ccc(F)cc3F)c(=O)n(C)c2n1`, the IC50 cell viability with PCB490-3, with PCB490-4 and in the experiment on PCB490-5 was over 100 µM in each case.

In the case of `CN1C[C@@H]2Cn3c(c(C4=C(c5cn(C)c6ccccc56)C(=O)NC4=O)c4ccccc43)C[C@H]2C1`, the IC50 cell viability in the experiment with PCB490-3, with PCB490-4 and in the experiment with PCB490-5 was over 100 µM each time.

In the case of `Cn1cc(C2=C(c3cn(C)c4cc(Cl)ccc34)C(=O)NC2=O)c2ccccc21`, the IC50 cell viability with PCB490-3, with PCB490-4 and with PCB490-5 was over 100 µM each time.

In the case of `CC(=O)Nc1ccc2c(C3=C(c4cn(C)c5ccccc45)C(=O)NC3=O)cn(C)c2c1`, the IC50 cell viability with PCB490-3 was over 100 µM; in the experiment with PCB490-4, 1.94 µM; in the experiment with PCB490-5, over 100 µM.

`Cn1cc(C2=C(c3cn(C)c4ncccc34)C(=O)NC2=O)c2ccccc21`: the IC50 cell viability in the experiment on PCB490-3, with PCB490-4 and with PCB490-5 was over 100 µM throughout.

As for `Cn1cc(C2=C(c3ccccc3[N+](=O)[O-])C(=O)NC2=O)c2ccccc21`, the IC50 cell viability in the experiment on PCB490-3, in the experiment with PCB490-4 and in the experiment with PCB490-5 was over 100 µM each time.

In the case of `Nc1c(C(=O)c2ccc(C#CCN3CCOCC3)cc2)cnn1-c1ccc(F)cc1`, the IC50 cell viability with PCB490-3, in the experiment on PCB490-4 and in the experiment with PCB490-5 was over 100 µM throughout.

As for `CS(=O)(=O)CCc1cccc(C(=O)c2cnn(-c3ccc(F)cc3)c2N)c1`, the IC50 cell viability with PCB490-3, in the experiment with PCB490-4 and with PCB490-5 was over 100 µM each time.

As for `Cn1cc(C2=C(c3cn(CCCN/C(N)=N/[N+](=O)[O-])c4ccccc34)C(=O)NC2=O)c2ccccc21`, the IC50 cell viability with PCB490-3, in the experiment on PCB490-4 and with PCB490-5 was over 100 µM throughout.

As for `C[C@H](CS(C)(=O)=O)Nc1ncc2cc(Oc3ccc(F)cc3F)c(=O)n(C)c2n1`, the IC50 cell viability in the experiment with PCB490-3, in the experiment on PCB490-4 and with PCB490-5 was over 100 µM each time.

In the case of `O=C1NC(=NCc2cccs2)O/C1=C\c1ccc2ncccc2c1`, the IC50 cell viability with PCB490-3, in the experiment on PCB490-4 and with PCB490-5 was over 100 µM each time.

Regarding `O=C1NC(=O)/C(=C/c2ccc3ncccc3c2)S1`, the IC50 cell viability in the experiment with PCB490-3, in the experiment with PCB490-4 and with PCB490-5 was over 100 µM throughout.

In the case of `O=C1Nc2ccc(F)cc2/C1=C/c1ccc[nH]1`, the IC50 cell viability in the experiment on PCB490-3, in the experiment with PCB490-4 and in the experiment on PCB490-5 was over 100 µM in each case.

Consider `Cn1c(-c2ccncc2)c(-c2ccc(F)cc2)c2ncccc21`, for which the IC50 cell viability with PCB490-3, with PCB490-4 and with PCB490-5 was over 100 µM in each case.

For `COc1ccc(C2=C(c3cn(C)c4ccccc34)C(=O)NC2=O)cc1`, the IC50 cell viability in the experiment with PCB490-3, in the experiment with PCB490-4 and in the experiment on PCB490-5 was over 100 µM in each case.

Regarding `Cn1cc(C2=C(c3cn(C)c4c(N)cccc34)C(=O)NC2=O)c2ccccc21`, the IC50 cell viability in the experiment with PCB490-3, in the experiment on PCB490-4 and in the experiment on PCB490-5 was over 100 µM throughout.

With `COc1cccc(C2=C(c3c(C)n(C)c4ccccc34)C(=O)NC2=O)c1`, the IC50 cell viability with PCB490-3, in the experiment on PCB490-4 and in the experiment on PCB490-5 was over 100 µM throughout.

As for `Cc1cc(C)c2c(n1)sc1c(N)ncnc12`, the IC50 cell viability with PCB490-3, with PCB490-4 and in the experiment with PCB490-5 was over 100 µM throughout.

On to `O=C1NC(O)C(c2c[nH]c3ccccc23)=C1c1c[nH]c2ccccc12` (configuration not stated), for which the IC50 cell viability with PCB490-3, in the experiment on PCB490-4 and with PCB490-5 was over 100 µM throughout.
